Results on 24 compounds are retold here after patent US6727206B2, “Substituted aryl ketones” (Bayer Aktiengesellschaft, priority 1999, dated 2004).

Series [1] relates to weeds. Kind of series: Pre-emergence test, activity against weeds. The settings on record: soil sprayed 24 hours after sowing, rated after three weeks. The series is classed as in vivo. The source says:
(§1) Seeds of the test plants are sown in normal soil.
(§2) After three weeks, the degree of damage to the plants is rated in % damage in comparison to the development of the untreated control.

Series [2] has as its system weeds. Kind of series: Post-emergence test, activity against weeds. The series is classed as in vivo. The settings on record: test plants of 5 to 15 cm sprayed, rated after three weeks.
Excerpt: as §2

The test system of series [3] is crop plants, such as maize. The experiment in a line: Post-emergence test, tolerance by crop plants. The series is classed as in vivo. The settings on record: rated after three weeks.
Excerpt: as §2

The subject of series [4] is crop plants, such as cotton, maize, soya and wheat. The experiment in a line: Pre-emergence test, tolerance by crop plants. The series is classed as in vivo. The settings on record: rated after three weeks.
Excerpt: as §1, §2

A short description of series [5]: logP determination by HPLC on reversed-phase column (C 18), EEC directive 79/831 Annex V.A8. The series is classed as physicochemical. The settings on record: for logP: Table 1; label a): acidic range. As to the method: Temperature: 43° C. (a) Mobile phases for the determination in the acidic range: 0.1% aqueous phosphoric acid, acetonitrile; linear gradient of 10% acetonitrile to 90% acetonitrile—the corresponding data in Table 1 are labelled ^a). (b) Mobile phases for the determination in the neutral range: 0.01 molar aqueous phosphate buffer solution, acetonitrile, linear gradient from 10% acetonitrile to 90% acetonitrile—the corresponding data in Table 1 are labelled ^b).

Setting [6] is: 0.1% aqueous phosphoric acid/acetonitrile gradient, 43° C.

Molecules are shown by their SMILES. Like-named read-outs stand apart in the source and are kept apart here.

By melting point is commonly meant the temperature, or range, at which the solid turns liquid. `Cn1c(C(S)c2c(Cl)ccc(C(=O)C3C(=O)CCCC3=O)c2Cl)n[nH]c1=O` (stereo not shown) came in with a melting point of 187 °C.
Same read-out and setting: as for `CCn1ncc(C(=O)c2ccc(Sc3n[nH]c(=O)n3C)cc2Cl)c1O`, the figure is 216 °C.
On to `Cn1c(Sc2cc(C(F)(F)F)ccc2C(=O)C2C(=O)CCCC2=O)n[nH]c1=O` [Example 1, 2-[2-[(4-methyl-5-oxo-4,5-dihydro-1H-1,2,4-triazol-3-yl)-sulphanyl]-4-trifluoromethyl-benzoyl]-1,3-cyclohexanedione], for which the “activity against weeds (degree of damage)” value in series [1] and in series [2] was “strong activity” throughout. Besides, the “tolerance by crop plants” value in series [3] and in series [4] was “tolerated well” throughout. Moreover, in series [5] (reversed-phase HPLC column (C 18), Example 1, mobile phase range not labelled, read-out: log P), the chromatographic logP was determined as 2.
Consider `Cn1nc(Sc2ccc(C(=O)C3C(=O)CCCC3=O)c(Cl)c2)n(C)c1=O` [Example 6], for which the logP result in series [5] (setting [6]) is on record as “logP = 2.08^a)”.
In the case of `Cc1nn(C)c(O)c1C(=O)c1ccc(Sc2nn(C)c(=O)n2C)cc1Cl` [Example 9], in series [5] (setting [6]), the logP result is on record as “logP = 1.34^a)”.
In the case of `Cn1nc(S(=O)(=O)c2ccc(C(=O)C3C(=O)CCCC3=O)c(Cl)c2)n(C)c1=O` [Example 13], the logP result in series [5] (setting [6]) is listed as “logP = 2.09^a)”.
Same read-out and setting: as for `Cn1c(S(=O)(=O)c2ccc(C(=O)C3C(=O)CCCC3=O)c(Cl)c2)n[nH]c1=O` [Example 14], the entry is “logP = 1.88^a)”.
Take `Cn1nc(Sc2cc(C(F)(F)F)ccc2C(=O)C2C(=O)CCCC2=O)n(C)c1=O` [Example 15]: the “activity against weeds (degree of damage)” value in series [1] and in series [2] was “strong activity” in each case. Moreover, the “tolerance by crop plants” value in series [3] and in series [4] was “tolerated well” throughout.
`Cn1nc(SCc2c(Cl)ccc(C(=O)C3C(=O)CCCC3=O)c2Cl)n(C)c1=O` [Example 20]: the logP entry in series [5] (setting [6]) is “logP = 2.24^a)”.
The compound `Cn1c([S+]([O-])Cc2c(Cl)ccc(C(=O)C3C(=O)CCCC3=O)c2Cl)n[nH]c1=O` (stereo not shown) [Example 22, 2-[2,4-dichloro-3-[(4-methyl-5-oxo-4,5-dihydro-1H-1,2,4-triazol-3-yl)-sulphinylmethyl]-benizoyl]-1,3-cyclohexanedione] displayed a chromatographic logP in series [5] (reversed-phase HPLC column (C 18); Table 1; label a): acidic range, 0.1% aqueous phosphoric acid/acetonitrile gradient, 43° C.) of 1.6.
As for `Cn1nc(S(=O)(=O)Cc2c(Cl)ccc(C(=O)C3C(=O)CCCC3=O)c2Cl)n(C)c1=O` [Example 23], in series [5] (setting [6]), the logP entry is “logP = 2.09^a)”.
On the same count and under the same terms, as for `Cn1c(S(=O)(=O)Cc2c(Cl)ccc(C(=O)C3C(=O)CCCC3=O)c2Cl)n[nH]c1=O` [Example 25], the entry is “logP = 1.87^a)”; as for `Cn1c([S+]([O-])Cc2c(Cl)ccc(C(=O)C3C(=O)CCCC3=O)c2Cl)n[nH]c1=O` (stereo not shown) [Example 28], “logP = 1.61^a)”.
Turning to `CCn1nc(Sc2ccc(C(=O)C3C(=O)CCCC3=O)c(Cl)c2)n(C)c1=O` [Example 47], the logP result in series [5] (setting [6]) is listed as “logP = 2.34^a)”.
On the same count and under the same terms, the entry for `CCCn1nc(Sc2ccc(C(=O)C3C(=O)CCCC3=O)c(Cl)c2)n(C)c1=O` [Example 49] is “logP = 2.63^a)”; for `C=CCn1nc(Sc2ccc(C(=O)C3C(=O)CCCC3=O)c(Cl)c2)n(C)c1=O` [Example 51] it is “logP = 2.47^a)”; for `C#CCn1nc(Sc2ccc(C(=O)C3C(=O)CCCC3=O)c(Cl)c2)n(C)c1=O` [Example 53] it is “logP = 2.37^a)”.
As to `Cn1c(Sc2ccc(C(=O)C3C(=O)CCCC3=O)c(Cl)c2)nn(CC2CC2)c1=O` [Example 55], the logP result in series [5] (setting [6]) is on record as “logP = 2.72^a)”.
On the same count and under the same terms, as for `Cn1c(Sc2ccc(C(=O)C3C(=O)CCCC3=O)c(Cl)c2)nn(Cc2ccccc2)c1=O` [Example 57], the entry is “logP = 3.04^a)”.
The same measure, in the same setting: the entry for `Cn1nc(S(=O)(=O)c2cc(C(F)(F)F)ccc2C(=O)C2C(=O)CCCC2=O)n(C)c1=O` [Example 68] is “logP = 1.85^a)”; for `CCn1ncc(C(=O)c2ccc(C(F)(F)F)cc2S(=O)(=O)c2nn(C)c(=O)n2C)c1O` [Example 69] it is “logP = 1.72^a)”.
The same measure, in the same setting: the entry for `Cn1nc([S+]([O-])Cc2cc(C(F)(F)F)ccc2C(=O)C2C(=O)CCCC2=O)n(C)c1=O` (stereo not shown) [Example 70] is “logP = 1.95^a)”.
In the case of `CCn1ncc(C(=O)c2ccc(C(F)(F)F)cc2C[S+]([O-])c2nn(C)c(=O)n2C)c1O` (stereo not shown) [Example 71], the logP result in series [5] (setting [6]) is “logP = 1.77^a)”.
As for `Cn1nc(SCc2cc(C(F)(F)F)ccc2C(=O)O)n(C)c1=O` [II-9, 2-[(4,5-dihydro-1,4-dimethyl-5-oxo-1H-1,2,4-triazol-3-yl)-sulphanylmethyl]-4-trifluoromethyl-benzoic acid], in series [5] (reversed-phase HPLC column (C 18), Table 2 (starting materials of formula II); label a): acidic range), the chromatographic logP came to 1.94.
